According to patent US11873288B2, “Inhibitors for soluble epoxide hydrolase (sEH) and fatty acid amide hydrolase (FAAH)” (The Regents of the University of California, priority 2016, dated 2024):

Key:
hFAAH [1] = biological target: T1, hFAAH (Homo sapiens, UniProt O00519); assay: recombinant FAAH enzyme with fluorescent substrate OMP (hFAAH IC50, screen); type: biochemical
T1 construct: made in house
T1 sequence (O00519 1-579): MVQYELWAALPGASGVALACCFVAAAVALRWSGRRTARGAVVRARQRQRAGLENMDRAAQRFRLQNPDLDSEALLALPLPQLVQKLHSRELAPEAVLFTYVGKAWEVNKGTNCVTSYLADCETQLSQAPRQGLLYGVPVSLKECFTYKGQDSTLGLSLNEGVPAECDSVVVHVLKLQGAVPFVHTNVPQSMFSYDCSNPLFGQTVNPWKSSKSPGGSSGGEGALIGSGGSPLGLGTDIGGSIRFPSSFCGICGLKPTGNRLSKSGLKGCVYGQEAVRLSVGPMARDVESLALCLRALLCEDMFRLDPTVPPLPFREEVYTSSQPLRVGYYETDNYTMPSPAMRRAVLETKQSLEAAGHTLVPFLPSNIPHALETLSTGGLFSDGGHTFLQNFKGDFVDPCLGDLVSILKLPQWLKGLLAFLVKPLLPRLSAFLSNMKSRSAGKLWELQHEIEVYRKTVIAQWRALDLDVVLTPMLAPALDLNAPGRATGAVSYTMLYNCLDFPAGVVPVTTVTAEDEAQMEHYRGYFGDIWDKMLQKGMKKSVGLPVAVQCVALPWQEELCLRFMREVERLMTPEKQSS

hFAAH [2] = biological target: T1, hFAAH; assay: hFAAH inhibition kinetics (KD, k2); type: biochemical
hsEH = biological target: T2, hsEH (Homo sapiens, UniProt P34913); assay: human sEH inhibition (hsEH IC50); type: biochemical
T2 sequence (P34913 1-555): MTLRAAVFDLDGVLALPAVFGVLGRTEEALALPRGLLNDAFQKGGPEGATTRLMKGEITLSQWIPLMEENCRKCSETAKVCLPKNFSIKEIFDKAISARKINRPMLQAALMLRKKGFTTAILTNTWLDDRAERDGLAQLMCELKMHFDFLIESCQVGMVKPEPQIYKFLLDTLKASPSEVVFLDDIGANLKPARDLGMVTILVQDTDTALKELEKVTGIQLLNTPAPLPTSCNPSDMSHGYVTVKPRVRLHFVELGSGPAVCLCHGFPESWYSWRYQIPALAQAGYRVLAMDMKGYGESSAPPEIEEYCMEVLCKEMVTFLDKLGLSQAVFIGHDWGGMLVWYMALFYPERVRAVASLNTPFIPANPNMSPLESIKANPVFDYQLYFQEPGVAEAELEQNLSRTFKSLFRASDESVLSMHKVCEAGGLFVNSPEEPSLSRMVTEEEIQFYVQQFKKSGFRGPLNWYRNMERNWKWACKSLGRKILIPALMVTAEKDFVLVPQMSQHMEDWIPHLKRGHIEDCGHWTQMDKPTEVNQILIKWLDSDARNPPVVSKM

MAGL = biological target: T3, MAGL (Homo sapiens, UniProt Q99685); assay: serine hydrolase selectivity panel: MAGL
T3 sequence (Q99685 1-303): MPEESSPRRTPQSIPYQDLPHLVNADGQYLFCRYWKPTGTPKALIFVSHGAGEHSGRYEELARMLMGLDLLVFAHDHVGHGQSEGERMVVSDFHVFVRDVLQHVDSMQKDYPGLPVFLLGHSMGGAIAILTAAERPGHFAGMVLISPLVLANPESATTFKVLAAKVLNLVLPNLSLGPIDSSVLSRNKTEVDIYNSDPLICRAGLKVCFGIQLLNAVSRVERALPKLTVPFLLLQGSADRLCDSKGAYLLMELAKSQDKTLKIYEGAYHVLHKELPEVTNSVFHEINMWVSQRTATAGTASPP

FAAH = biological target: T4, FAAH (Felis catus, UniProt A0ABI8A862); settings: read-out: FAAH IC50, Cat; brain microsome preparations
T4 sequence (A0ABI8A862 1-541): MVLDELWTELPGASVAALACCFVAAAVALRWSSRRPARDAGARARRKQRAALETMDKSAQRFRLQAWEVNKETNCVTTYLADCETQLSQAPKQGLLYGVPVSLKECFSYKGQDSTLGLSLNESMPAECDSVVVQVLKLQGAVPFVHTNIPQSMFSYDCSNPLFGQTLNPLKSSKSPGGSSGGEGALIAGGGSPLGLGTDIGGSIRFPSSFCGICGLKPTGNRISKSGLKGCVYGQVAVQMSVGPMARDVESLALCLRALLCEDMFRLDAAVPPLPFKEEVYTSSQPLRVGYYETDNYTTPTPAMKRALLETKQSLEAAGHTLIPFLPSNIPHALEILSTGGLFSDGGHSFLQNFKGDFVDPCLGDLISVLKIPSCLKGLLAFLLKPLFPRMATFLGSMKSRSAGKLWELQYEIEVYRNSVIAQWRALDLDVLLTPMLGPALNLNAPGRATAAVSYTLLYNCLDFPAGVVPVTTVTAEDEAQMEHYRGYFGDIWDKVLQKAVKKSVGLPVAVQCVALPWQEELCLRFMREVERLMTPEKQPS

sEH = biological target: T5, sEH (Rattus norvegicus, UniProt P80299); assay: biochemical
T5 sequence (P80299 1-554): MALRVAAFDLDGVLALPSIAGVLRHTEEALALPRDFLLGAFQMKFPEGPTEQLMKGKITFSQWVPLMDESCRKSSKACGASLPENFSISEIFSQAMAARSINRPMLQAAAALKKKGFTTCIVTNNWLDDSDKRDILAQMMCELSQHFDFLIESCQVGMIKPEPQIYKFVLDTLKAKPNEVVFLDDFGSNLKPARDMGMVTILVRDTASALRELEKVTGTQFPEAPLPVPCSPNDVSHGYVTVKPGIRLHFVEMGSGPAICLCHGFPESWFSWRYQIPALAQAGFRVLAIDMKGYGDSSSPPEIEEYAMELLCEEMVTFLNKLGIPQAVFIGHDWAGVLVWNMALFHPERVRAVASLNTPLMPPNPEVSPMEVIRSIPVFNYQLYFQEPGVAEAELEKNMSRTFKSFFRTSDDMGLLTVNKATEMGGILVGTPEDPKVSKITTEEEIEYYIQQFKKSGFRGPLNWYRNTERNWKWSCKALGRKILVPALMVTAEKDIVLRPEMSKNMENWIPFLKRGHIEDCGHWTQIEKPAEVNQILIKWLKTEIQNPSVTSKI

Row | SMILES | IC50 (hFAAH [1]) | Kd (hFAAH [2]) | hFAAH k2 (hFAAH [2]) | IC50 (hsEH) | increase of activity/potency towards sEH (hsEH) | IC50 (MAGL) | IC50 (FAAH) | IC50 (sEH)
1 | COc1ccc(NC(=O)N2CCC(Cc3cnc4ccccc4c3)CC2)cc1 [Compound B-5, N-(4-methoxyphenyl)-4-(quinolin-3-ylmethyl)piperidine-1-carboxamide] | 0.032 µM | 0.024 ± 0.004 µM | 0.37 ± 0.03 min⁻¹ | 0.13 ± 0.04 µM | 4 fold |  |  | 
2 | O=C(Nc1ccc(OC(F)(F)F)cc1)N[C@H]1CC[C@H](Oc2ccc(O)cc2)CC1 [Compound A-21, trans-1-(−4-(4-hydroxy-phenoxy)cyclohexyl)-3-(4-(trifluoromethoxy)phenyl)urea] |  |  |  |  |  | > 10 µM | 0.13 µM | 
3 | O=C(Nc1cccnc1)N1CCC(Cc2cccc(Oc3ccc(C(F)(F)F)cn3)c2)CC1 [PF-3845] | 0.0004 µM |  |  |  |  |  | < 0.0001 µM | 
4 | O=C(Nc1ccc(OC(F)(F)F)cc1)N[C@H]1CC[C@H](Oc2ccc(C(=O)OCc3ccccc3)cc2)CC1 [Compound A-14, benzyl 4-((trans-4-(3-(4-(trifluoromethoxy)phenyl)ureido)cyclohexyl)oxy) benzoate] |  |  |  |  |  | > 10 µM | > 1 µM | 
5 | COc1ccc(NC(=O)N2CCC(c3nc(-c4ccccc4)cs3)CC2)cc1 [Compound B-10, N-(4-methoxyphenyl)-4-(4-phenylthiazol-2-yl)piperidine-1-carboxamide] | 0.25 µM | 0.75 ± 0.02 µM | 0.55 ± 0.02 min⁻¹ | 0.57 ± 0.17 µM |  |  |  | 
6 | O=C(Nc1ccc(OC(F)(F)F)cc1)N[C@H]1CC[C@H](Oc2ccc(C(=O)O)cc2)CC1 [t-TUCB, trans-4-{4-[3-(4-trifluoromethoxyphenyl)-ureido]cyclohexyloxy}benzoic acid] |  |  |  |  |  | > 10 µM | > 1 µM | 0.054 µM
